Source: PubChem BioAssay (NCI)
Several values for one entry are separate records, joined by “and”; a condition that tells them apart may be missing. Equal entries are not always repeated.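 1) Cells in 96-well plates. 2) Compound, 48 h, 5 concentrations. 3) Linear interpolation between surrounding doses. 4) Unreached endpoint = highest concentration. GI50: concentration for 50% inhibition of growth. TGI marks complete inhibition of growth.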

How the values were obtained:
Test in all cases: NCI anticancer screen, dose series, 48 h
[1] = tested on: A498 renal
[2] = tested on: CCRF-CEM leukemia
[3] = tested on: HT29 colon
[4] = tested on: NCI-H522 lung
[5] = tested on: SK-MEL-28 melanoma
[6] = tested on: SK-MEL-5 melanoma
[7] = tested on: UACC-62 melanoma
[8] = tested on: UO-31 renal
[9] = tested on: IGROV1 ovarian
[10] = tested on: SK-MEL-2 melanoma

`O=C1Nc2ccc(Br)cc2C1=Nc1ccc(Cl)cc1` gave a TGI [1] greater than 100 µM, a TGI [2] of 51.9 µM and a TGI [3] of 38.5 µM. For the same molecule, the TGI [4] was 24.6 µM, the TGI [5] was 82.5 µM and the TGI [6] was 20.1 µM. The TGI [7] was 12.6 µM and the TGI [8] was 28.9 µM.

`C#CCn1cc(C=C2C(=O)NC(=S)NC2=O)c2cc(Cl)ccc21` showed a GI50 [2] of 2.32 µM, a TGI [2] of 6.45 µM and a GI50 [3] of 2.21 µM. For the same molecule, the TGI [3] was 4.68 µM, the GI50 [9] was 2.13 µM and the TGI [9] was 5.1 µM. It also gave a GI50 [4] of 2.12 µM, a TGI [4] of 5.45 µM and a GI50 [10] of 2.41 µM. The TGI [10] was 5.91 µM, the GI50 [5] was 2.33 µM and the TGI [5] was 5.56 µM. The GI50 [6] was 1.81 µM, the TGI [6] was 3.31 µM and the GI50 [7] was 1.85 µM. For the same molecule, the TGI [7] was 3.91 µM, the GI50 [8] was 1.7 µM and the TGI [8] was 3.44 µM.

Molecule `C/C(=N\O)[C@H]1CC[C@@]2(C)[C@@H]3CC[C@H]4C(C)(C)/C(=N/O)CC[C@@]45CC35CC[C@]12C` (some centres not stated) has a GI50 [1] of 2.46 µM, a TGI [1] of 5.87 µM and a GI50 [3] of 5.56 µM. For the same molecule, the TGI [3] was greater than 16.7 µM, the GI50 [9] was 5.28 µM and the TGI [9] was greater than 16.7 µM. It also gave a GI50 [4] greater than 16.7 µM, a TGI [4] greater than 16.7 µM and a GI50 [10] of 13.4 µM. It also gave a TGI [10] greater than 16.7 µM, a GI50 [5] of 4.34 µM and a TGI [5] of 14.2 µM. The GI50 [6] was 1.51 µM, the TGI [6] was 7.59 µM and the GI50 [7] was 5.44 µM. For the same molecule, the TGI [7] was greater than 16.7 µM.

With `COc1ccc(C2NC(=S)NC3=C2COc2ccc(F)cc23)cc1OC` (configuration not stated) the GI50 [1] was 13.4 µM, the TGI [1] was 36.1 µM and the GI50 [2] was 93.5 µM. The TGI [2] was greater than 100 µM, the GI50 [9] was 29.8 µM and the TGI [9] was greater than 100 µM. The GI50 [4] was 49.2 µM, the TGI [4] was greater than 100 µM and the GI50 [10] was 55.4 µM. For the same molecule, the TGI [10] was greater than 100 µM, the GI50 [5] was 41.2 µM and the TGI [5] was greater than 100 µM. It also gave a GI50 [6] of 13.5 µM, a TGI [6] of 30.7 µM and a GI50 [7] of 14.8 µM. It also gave a TGI [7] of 41.8 µM, a GI50 [8] of 39.2 µM and a TGI [8] greater than 100 µM.

Molecule `C(/C=C/N1CCCC1)=C\c1nc(N2CCCC2)c2ccccc2n1` has a TGI [1] greater than 100 µM, a TGI [2] of 50.1 µM and a TGI [3] of 39.4 µM. It also gave a TGI [9] of 39.6 µM, a TGI [10] of 39.1 µM and a TGI [5] of 38.7 µM. It also gave a TGI [6] of 33.3 µM, a TGI [7] of 44.1 µM and a TGI [8] of 29.2 µM.

`COc1ccccc1-c1nccc(COc2ccccc2C[C@@H](Oc2ncnc3sc(-c4ccc(F)cc4)c(-c4ccc(OCCN5CCN(C)CC5)c(Cl)c4C)c23)C(=O)O)n1` showed a TGI [1] of 0.522 µM, a GI50 [2] of 0.804 µM and a TGI [2] greater than 35.7 µM. The GI50 [3] was 2.65 µM, the TGI [3] was 7.09 µM and the GI50 [9] was 2.27 µM. For the same molecule, the TGI [9] was 6.08 µM, the GI50 [10] was less than 0.0114 µM and the TGI [10] was 0.0367 µM. For the same molecule, the GI50 [5] was 1.76 µM, the TGI [5] was 3.36 µM and the GI50 [6] was 1.71 µM. The TGI [6] was 3.12 µM, the GI50 [7] was 0.0761 µM and the TGI [7] was 1.41 µM. It also gave a GI50 [8] of 6.12 µM and a TGI [8] of 17.5 µM.

Work on `CCOC(=O)/N=c1\ssc(Cl)c1Cl` yielded a GI50 [2] of 0.646 µM, a TGI [2] greater than 100 µM and a GI50 [3] of 4.43 µM. The TGI [3] was greater than 100 µM, the GI50 [4] was 3.87 µM and the TGI [4] was 95.9 µM. The GI50 [10] was 12.1 µM, the TGI [10] was 60.4 µM and the GI50 [5] was 3.9 µM. The TGI [5] was 27.1 µM, the GI50 [6] was 3.9 µM and the TGI [6] was 19.1 µM. The GI50 [7] was 14 µM, the TGI [7] was 29.6 µM and the GI50 [8] was 4.97 µM. It also gave a TGI [8] greater than 100 µM.

Work on `COc1cc2c3c(c1OC)/C(=N/OS(=O)(=O)c1ccc(C)cc1)CC3N(S(=O)(=O)c1ccc(C)cc1)CC2` (configuration not stated) yielded a TGI [1] greater than 100 µM, a TGI [2] greater than 100 µM and a TGI [3] greater than 100 µM. It also gave a TGI [9] greater than 100 µM, a TGI [4] greater than 100 µM and a TGI [5] greater than 100 µM. For the same molecule, the TGI [6] was greater than 100 µM, the TGI [7] was greater than 100 µM and the TGI [8] was greater than 100 µM.

In the case of `O=c1c2ccccc2c(=O)c2c1sc1c(=O)c3ccc(O)cc3c(=O)c12`, the GI50 [1] is reported as 0.574 µM, the TGI [1] is reported as 1.72 µM and the GI50 [2] is reported as 2.59 µM. It also gave a TGI [2] of 10.3 µM, a GI50 [3] of 2.39 µM and a TGI [3] of 6.01 µM. The GI50 [9] was 2.1 µM, the TGI [9] was 6.84 µM and the GI50 [10] was 1.47 µM. It also gave a TGI [10] of 3.88 µM, a GI50 [5] of 0.247 µM and a TGI [5] of 0.541 µM. The GI50 [6] was 0.127 µM, the TGI [6] was 0.256 µM and the GI50 [7] was 0.174 µM. The TGI [7] was 0.331 µM, the GI50 [8] was 0.644 µM and the TGI [8] was 2.82 µM.

With `COc1cc2c(c(OC)c1OC)-c1ccc(SC)c(=O)cc1[C@@H](NC(=O)c1ccc(F)cc1)CC2` the GI50 [1] was less than 0.01 µM, the TGI [1] was 0.0757 µM and < 0.01 µM and the TGI [2] was greater than 100 µM. The GI50 [3] was less than 0.01 µM, the TGI [3] was 0.0891 µM and < 0.01 µM and the GI50 [9] was less than 0.01 µM. It also gave a TGI [9] greater than 100 µM, a TGI [4] of less than 0.01 µM and a TGI [5] greater than 100 µM. The GI50 [6] was 0.0305 µM, the GI50 [7] was less than 0.01 µM and the TGI [7] was 27.6 µM. For the same molecule, the TGI [8] was 46.6 µM.

With `COc1cc(/C=C2/C(=O)N(C(=O)c3ccccc3O)N=C2C)ccc1O` the TGI [2] was greater than 100 µM, the TGI [3] was greater than 100 µM and the TGI [9] was 2.06 µM. For the same molecule, the TGI [10] was greater than 100 µM, the TGI [5] was greater than 100 µM and the TGI [6] was greater than 42.1 µM. It also gave a TGI [7] of 0.364 µM.

In the case of `C=C1C(=O)C23CC1CCC2C12CO[C@@]3(O)[C@@H](O)C1C(C)(C)C=CC2=O` (some centres not stated), the GI50 [2] is reported as 0.759 µM, the GI50 [3] is reported as 2.12 µM and the TGI [3] is reported as 0.756 µM and 5.49 µM. The TGI [4] was 4.09 µM, the TGI [10] was 1.99 µM and the GI50 [5] was 1.58 µM. The TGI [5] was 1.48 µM and 3.35 µM, the TGI [6] was 19.1 µM and the GI50 [7] was 4.89 µM. For the same molecule, the TGI [7] was 2.37 µM and 19.3 µM, the GI50 [8] was 8.37 µM and the TGI [8] was 4.2 µM and 20.4 µM.

With `CCCC/C=C1\CCC(CN2CCCC2)C1=O` (configuration not stated) the TGI [1] was 28.2 µM, the TGI [2] was 25 µM and the TGI [3] was 31.5 µM. The TGI [9] was 34.2 µM, the TGI [10] was 29.8 µM and the TGI [5] was 29.1 µM. The TGI [6] was 31.1 µM, the TGI [7] was 31.2 µM and the TGI [8] was 32.3 µM.

Molecule `CC(=O)Nc1ccc2c(c1)CN1C(=O)c3ccccc3C1=N2` has a GI50 [1] greater than 100 µM, a TGI [1] greater than 100 µM and a GI50 [2] greater than 100 µM. It also gave a TGI [2] greater than 100 µM, a GI50 [9] greater than 100 µM and a TGI [9] greater than 100 µM. The GI50 [5] was greater than 100 µM, the TGI [5] was greater than 100 µM and the GI50 [6] was greater than 100 µM. The TGI [6] was greater than 100 µM, the GI50 [7] was greater than 100 µM and the TGI [7] was greater than 100 µM. It also gave a GI50 [8] greater than 100 µM and a TGI [8] greater than 100 µM.

For `COc1ccc(C(=O)/C=C/c2ccc(OCCCCCCCCCCOc3ccc(/C=C/C(=O)c4ccc(OC)c(OC)c4)cc3)cc2)c(OC)c1`, the TGI [2] was greater than 100 µM, the TGI [3] was greater than 100 µM and the TGI [9] was greater than 100 µM. For the same molecule, the TGI [10] was greater than 100 µM, the TGI [5] was greater than 100 µM and the TGI [6] was greater than 100 µM. The TGI [7] was greater than 100 µM and the TGI [8] was greater than 100 µM.

`C=C1c2ccccc2N(S(=O)(=O)c2ccc(C)cc2)C12CCCCC2` gave a TGI [2] greater than 100 µM, a TGI [3] greater than 100 µM and a TGI [9] greater than 100 µM. The TGI [4] was greater than 100 µM, the TGI [10] was greater than 100 µM and the TGI [5] was greater than 100 µM. The TGI [6] was greater than 100 µM, the TGI [7] was greater than 100 µM and the TGI [8] was greater than 100 µM.

`CCCCCCCCCCCCNC(=O)[C@H]1CSC(c2ccsc2)N1` (some centres not stated) gave a GI50 [1] of 9.62 µM, a TGI [1] of 17.1 µM and a GI50 [3] of 0.995 µM. The TGI [3] was 1.83 µM, the GI50 [9] was 0.96 µM and the TGI [9] was 1.92 µM. For the same molecule, the GI50 [4] was 5.14 µM, the TGI [4] was 11.8 µM and the GI50 [10] was 0.974 µM. For the same molecule, the TGI [10] was 1.76 µM, the GI50 [5] was 0.814 µM and the TGI [5] was 1.54 µM. For the same molecule, the GI50 [6] was 1.36 µM, the TGI [6] was 5.22 µM and the GI50 [7] was 0.929 µM. For the same molecule, the TGI [7] was 1.82 µM, the GI50 [8] was 0.826 µM and the TGI [8] was 1.51 µM.

`Cc1nnc(N=Nc2c(O)[nH]c3ccccc23)[nH]c1=O` was tested, and the TGI [1] was greater than 100 µM, the TGI [3] was greater than 100 µM and the TGI [9] was greater than 100 µM. The TGI [4] was greater than 100 µM, the TGI [10] was greater than 100 µM and the TGI [5] was greater than 100 µM. For the same molecule, the TGI [7] was greater than 100 µM and the TGI [8] was greater than 100 µM.
